Results published in ChEMBL document CHEMBL4257449, “New N-(2-phenyl-4-oxo-1,3-thiazolidin-3-yl)-1,2-benzothiazole-3-carboxamides and acetamides as antimicrobial agents” (2017).
In brackets after ≈: the same amount, converted by molar mass.

Columns and labels:
Pseudomonas aeruginosa [1] = experiment: Bactericidal activity against Pseudomonas aeruginosa ATCC 27853 incubated for 24 hrs followed by serial sub-cultivation and measured after 24 hrs by microdilution method; format: functional
Trichoderma viride [2] = experiment: Fungicidal activity against Trichoderma viride IAM 5061 incubated for 72 hrs followed by serial sub-cultivation for 72 hrs and measured after 72 hrs by serial dilution method; format: functional
Enterobacter cloacae [3] = experiment: Bactericidal activity against Enterobacter cloacae incubated for 24 hrs followed by serial sub-cultivation and measured after 24 hrs by microdilution method; format: functional
Trichoderma viride [4] = experiment: Antifungal activity against Trichoderma viride IAM 5061 after 72 hrs by serial dilution method; format: functional; conditions: IAM 5061, 72 h
Bacillus cereus [5] = experiment: Antibacterial activity against Bacillus cereus after 24 hrs by microdilution method; format: functional
Micrococcus flavus [6] = experiment: Antibacterial activity against Micrococcus flavus ATCC 10240 after 24 hrs by microdilution method; format: functional; conditions: ATCC 10240, 24 h
Staphylococcus aureus [7] = experiment: Antibacterial activity against Staphylococcus aureus ATCC 6538 after 24 hrs by microdilution method; format: functional; conditions: ATCC 6538, 24 h
Bacillus cereus [8] = experiment: Bactericidal activity against Bacillus cereus incubated for 24 hrs followed by serial sub-cultivation and measured after 24 hrs by microdilution method; format: functional
Talaromyces funiculosus [9] = experiment: Fungicidal activity against Penicillium funiculosum ATCC 36839 incubated for 72 hrs followed by serial sub-cultivation for 72 hrs and measured after 72 hrs by serial dilution method; format: functional
Candida albicans [10] = experiment: Antifungal activity against Candida albicans after 72 hrs by serial dilution method; format: functional
Listeria monocytogenes [11] = experiment: Bactericidal activity against Listeria monocytogenes NCTC 7973 incubated for 24 hrs followed by serial sub-cultivation and measured after 24 hrs by microdilution method; format: functional
Staphylococcus aureus [12] = experiment: Bactericidal activity against Staphylococcus aureus ATCC 6538 incubated for 24 hrs followed by serial sub-cultivation and measured after 24 hrs by microdilution method; format: functional
Aspergillus ochraceus [13] = experiment: Antifungal activity against Aspergillus ochraceus ATCC 12066 after 72 hrs by serial dilution method; format: functional; conditions: ATCC 12066, 72 h
Talaromyces funiculosus [14] = experiment: Antifungal activity against Penicillium funiculosum ATCC 36839 after 72 hrs by serial dilution method; format: functional; conditions: ATCC 36839, 72 h
Listeria monocytogenes [15] = experiment: Antibacterial activity against Listeria monocytogenes NCTC 7973 after 24 hrs by microdilution method; format: functional; conditions: NCTC 7973, 24 h
Salmonella typhimurium [16] = experiment: Antibacterial activity against Salmonella typhimurium ATCC 13311 after 24 hrs by microdilution method; format: functional, Salmonella enterica subsp. enterica serovar Typhimurium; conditions: Salmonella enterica, ATCC 13311, 24 h
Escherichia coli [17] = experiment: Antibacterial activity against Escherichia coli ATCC 35210 after 24 hrs by microdilution method; format: functional; conditions: ATCC 35210, 24 h
Aspergillus fumigatus [18] = experiment: Fungicidal activity against Aspergillus fumigatus incubated for 72 hrs followed by serial sub-cultivation for 72 hrs and measured after 72 hrs by serial dilution method; format: functional
Pseudomonas aeruginosa [19] = experiment: Antibacterial activity against Pseudomonas aeruginosa ATCC 27853 after 24 hrs by microdilution method; format: functional; conditions: ATCC 27853, 24 h
Micrococcus flavus [20] = experiment: Bactericidal activity against Micrococcus flavus ATCC 10240 incubated for 24 hrs followed by serial sub-cultivation and measured after 24 hrs by microdilution method; format: functional
Penicillium ochrochloron [21] = experiment: Fungicidal activity against Penicillium ochrochloron ATCC 9112 incubated for 72 hrs followed by serial sub-cultivation for 72 hrs and measured after 72 hrs by serial dilution method; format: functional
Aspergillus versicolor [22] = experiment: Fungicidal activity against Aspergillus versicolor ATCC 11730 incubated for 72 hrs followed by serial sub-cultivation for 72 hrs and measured after 72 hrs by serial dilution method; format: functional
Candida albicans [23] = experiment: Fungicidal activity against Candida albicans incubated for 72 hrs followed by serial sub-cultivation for 72 hrs and measured after 72 hrs by serial dilution method; format: functional
Salmonella typhimurium [24] = experiment: Bactericidal activity against Salmonella typhimurium ATCC 13311 incubated for 24 hrs followed by serial sub-cultivation and measured after 24 hrs by microdilution method; format: functional, Salmonella enterica subsp. enterica serovar Typhimurium
Aspergillus niger [25] = experiment: Fungicidal activity against Aspergillus niger ATCC 6275 incubated for 72 hrs followed by serial sub-cultivation for 72 hrs and measured after 72 hrs by serial dilution method; format: functional
Escherichia coli [26] = experiment: Bactericidal activity against Escherichia coli ATCC 35210 incubated for 24 hrs followed by serial sub-cultivation and measured after 24 hrs by microdilution method; format: functional
Enterobacter cloacae [27] = experiment: Antibacterial activity against Enterobacter cloacae after 24 hrs by microdilution method; format: functional
Penicillium ochrochloron [28] = experiment: Antifungal activity against Penicillium ochrochloron ATCC 9112 after 72 hrs by serial dilution method; format: functional; conditions: ATCC 9112, 72 h
Aspergillus versicolor [29] = experiment: Antifungal activity against Aspergillus versicolor ATCC 11730 after 72 hrs by serial dilution method; format: functional; conditions: ATCC 11730, 72 h
Aspergillus fumigatus [30] = experiment: Antifungal activity against Aspergillus fumigatus after 72 hrs by serial dilution method; format: functional
Aspergillus ochraceus [31] = experiment: Fungicidal activity against Aspergillus ochraceus ATCC 12066 incubated for 72 hrs followed by serial sub-cultivation for 72 hrs and measured after 72 hrs by serial dilution method; format: functional
Aspergillus niger [32] = experiment: Antifungal activity against Aspergillus niger ATCC 6275 after 72 hrs by serial dilution method; format: functional; conditions: ATCC 6275, 72 h

Row | SMILES | MBC99.5 (Pseudomonas aeruginosa [1]) [×10⁻² umol/ml] | MFC99.5 (Trichoderma viride [2]) [×10⁻² umol/ml] | MBC99.5 (Enterobacter cloacae [3]) [×10⁻² umol/ml] | MIC (Trichoderma viride [4]) [µM] | MIC (Bacillus cereus [5]) [µM] | MIC (Micrococcus flavus [6]) [µM] | MIC (Staphylococcus aureus [7]) [µM] | MBC99.5 (Bacillus cereus [8]) [×10⁻² umol/ml] | MFC99.5 (Talaromyces funiculosus [9]) [×10⁻² umol/ml] | MIC (Candida albicans [10]) [µM] | MBC99.5 (Listeria monocytogenes [11]) [×10⁻² umol/ml] | MBC99.5 (Staphylococcus aureus [12]) [×10⁻² umol/ml] | MIC (Aspergillus ochraceus [13]) [µM] | MIC (Talaromyces funiculosus [14]) [µM] | MIC (Listeria monocytogenes [15]) [µM] | MIC (Salmonella typhimurium [16]) [µM] | MIC (Escherichia coli [17]) [µM] | MFC99.5 (Aspergillus fumigatus [18]) [×10⁻² umol/ml] | MIC (Pseudomonas aeruginosa [19]) [µM] | MBC99.5 (Micrococcus flavus [20]) [×10⁻² umol/ml] | other results
1 | O=C(NN1C(=O)CSC1c1ccccc1)c1nsc2ccccc12 (stereo not drawn) | 42.2 | 11.2 | 22.5 | 56 (≈ 19.9 µg/mL) | 225 (≈ 80 µg/mL) | 225 (≈ 80 µg/mL) | 225 (≈ 80 µg/mL) | 42.2 | 42.2 | 253 (≈ 89.9 µg/mL) | 42.2 | 42.2 | 28 (≈ 9.95 µg/mL) | 225 (≈ 80 µg/mL) | 225 (≈ 80 µg/mL) | 225 (≈ 80 µg/mL) | 112 (≈ 39.8 µg/mL) | 22.5 | 225 (≈ 80 µg/mL) | 42.2 | MFC99.5 (Penicillium ochrochloron [21]): 22.5 ×10⁻² umol/ml; MFC99.5 (Aspergillus versicolor [22]): 42.2 ×10⁻² umol/ml; MFC99.5 (Candida albicans [23]): 42.2 ×10⁻² umol/ml; MBC99.5 (Salmonella typhimurium [24]): 42.2 ×10⁻² umol/ml; MFC99.5 (Aspergillus niger [25]): 22.5 ×10⁻² umol/ml; MBC99.5 (Escherichia coli [26]): 22.5 ×10⁻² umol/ml; MIC (Enterobacter cloacae [27]): 112 µM (≈ 39.8 µg/mL); MIC (Penicillium ochrochloron [28]): 112 µM (≈ 39.8 µg/mL); MIC (Aspergillus versicolor [29]): 225 µM (≈ 80 µg/mL); MIC (Aspergillus fumigatus [30]): 112 µM (≈ 39.8 µg/mL); MFC99.5 (Aspergillus ochraceus [31]): 5.6 ×10⁻² umol/ml; MIC (Aspergillus niger [32]): 112 µM (≈ 39.8 µg/mL)
2 | O=C(NN1C(=O)CSC1c1ccccc1F)c1nsc2ccccc12 (stereo not drawn) | 40.2 | 5.4 | 40.2 | 27 (≈ 10.1 µg/mL) | 214 (≈ 79.9 µg/mL) | 295 (≈ 110 µg/mL) | 214 (≈ 79.9 µg/mL) | 40.2 | 21.4 | 107 (≈ 40 µg/mL) | 40.2 | 40.2 | 80 (≈ 29.9 µg/mL) | 107 (≈ 40 µg/mL) | 214 (≈ 79.9 µg/mL) | 214 (≈ 79.9 µg/mL) | 214 (≈ 79.9 µg/mL) | 21.4 | 214 (≈ 79.9 µg/mL) | 40.2 | MFC99.5 (Penicillium ochrochloron [21]): 10.7 ×10⁻² umol/ml; MFC99.5 (Aspergillus versicolor [22]): 40.2 ×10⁻² umol/ml; MFC99.5 (Candida albicans [23]): 21.4 ×10⁻² umol/ml; MBC99.5 (Salmonella typhimurium [24]): 40.2 ×10⁻² umol/ml; MFC99.5 (Aspergillus niger [25]): 21.4 ×10⁻² umol/ml; MBC99.5 (Escherichia coli [26]): 40.2 ×10⁻² umol/ml; MIC (Enterobacter cloacae [27]): 214 µM (≈ 79.9 µg/mL); MIC (Penicillium ochrochloron [28]): 54 µM (≈ 20.2 µg/mL); MIC (Aspergillus versicolor [29]): 214 µM (≈ 79.9 µg/mL); MIC (Aspergillus fumigatus [30]): 107 µM (≈ 40 µg/mL); MFC99.5 (Aspergillus ochraceus [31]): 21.4 ×10⁻² umol/ml; MIC (Aspergillus niger [32]): 107 µM (≈ 40 µg/mL)
3 | O=C(Cc1nsc2ccccc12)N/N=C/c1c(F)cccc1Cl | 48.2 | 23.2 | 48.2 | 116 (≈ 40.3 µg/mL) | 241 (≈ 83.8 µg/mL) | 362 (≈ 126 µg/mL) | 241 (≈ 83.8 µg/mL) | 48.2 | 23.2 | 464 (≈ 161 µg/mL) | 96.4 | 48.2 | 116 (≈ 40.3 µg/mL) | 116 (≈ 40.3 µg/mL) | 482 (≈ 168 µg/mL) | 241 (≈ 83.8 µg/mL) | 362 (≈ 126 µg/mL) | 92.8 | 362 (≈ 126 µg/mL) | 48.2 | MFC99.5 (Penicillium ochrochloron [21]): 23.2 ×10⁻² umol/ml; MFC99.5 (Aspergillus versicolor [22]): 23.2 ×10⁻² umol/ml; MFC99.5 (Candida albicans [23]): 58 ×10⁻² umol/ml; MBC99.5 (Salmonella typhimurium [24]): 48.2 ×10⁻² umol/ml; MFC99.5 (Aspergillus niger [25]): 23.2 ×10⁻² umol/ml; MBC99.5 (Escherichia coli [26]): 48.2 ×10⁻² umol/ml; MIC (Enterobacter cloacae [27]): 362 µM (≈ 126 µg/mL); MIC (Penicillium ochrochloron [28]): 116 µM (≈ 40.3 µg/mL); MIC (Aspergillus versicolor [29]): 116 µM (≈ 40.3 µg/mL); MIC (Aspergillus fumigatus [30]): 464 µM (≈ 161 µg/mL); MFC99.5 (Aspergillus ochraceus [31]): 23.2 ×10⁻² umol/ml; MIC (Aspergillus niger [32]): 116 µM (≈ 40.3 µg/mL)
4 | O=C(NN1C(=O)CSC1c1ccc(F)cc1)c1nsc2ccccc12 (stereo not drawn) | 21.4 | 80.4 | 21.4 | 402 (≈ 150 µg/mL) | 214 (≈ 79.9 µg/mL) | 214 (≈ 79.9 µg/mL) | 107 (≈ 40 µg/mL) | 40.2 | 53.6 | 80 (≈ 29.9 µg/mL) | 40.2 | 21.4 | 402 (≈ 150 µg/mL) | 214 (≈ 79.9 µg/mL) | 214 (≈ 79.9 µg/mL) | 107 (≈ 40 µg/mL) | 107 (≈ 40 µg/mL) | 21.4 | 107 (≈ 40 µg/mL) | 40.2 | MFC99.5 (Penicillium ochrochloron [21]): 80.4 ×10⁻² umol/ml; MFC99.5 (Aspergillus versicolor [22]): 80.4 ×10⁻² umol/ml; MFC99.5 (Candida albicans [23]): 10.7 ×10⁻² umol/ml; MBC99.5 (Salmonella typhimurium [24]): 21.4 ×10⁻² umol/ml; MFC99.5 (Aspergillus niger [25]): 80.4 ×10⁻² umol/ml; MBC99.5 (Escherichia coli [26]): 21.4 ×10⁻² umol/ml; MIC (Enterobacter cloacae [27]): 107 µM (≈ 40 µg/mL); MIC (Penicillium ochrochloron [28]): 402 µM (≈ 150 µg/mL); MIC (Aspergillus versicolor [29]): 402 µM (≈ 150 µg/mL); MIC (Aspergillus fumigatus [30]): 107 µM (≈ 40 µg/mL); MFC99.5 (Aspergillus ochraceus [31]): 80.4 ×10⁻² umol/ml; MIC (Aspergillus niger [32]): 402 µM (≈ 150 µg/mL)
